PubChem BioAssay (NCI)
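Dose response: 5 concentrations. Exposure: 48 h. Format: 96-well plates. Endpoint: linear interpolation; highest concentration if not reached. GI50 = concentration required for 50% inhibition of growth. TGI is the concentration that stops growth completely.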

Key:
Assay in all cases: DTP human tumour cell line panel, 48 h
EKVX NSCLC = system: EKVX NSCLC
HCT-15 colon = system: HCT-15 colon
HS 578T breast = system: HS 578T breast
HCT-116 colon = system: HCT-116 colon
SF-268 CNS = system: SF-268 CNS
NCI-H522 lung = system: NCI-H522 lung
SNB-19 CNS = system: SNB-19 CNS
SK-OV-3 ovarian = system: SK-OV-3 ovarian
COLO 205 colon = system: COLO 205 colon
ACHN renal = system: ACHN renal

Row | Structure (SMILES) | GI50 (EKVX NSCLC) [nM] | TGI (EKVX NSCLC) [µM] | GI50 (HCT-15 colon) [nM] | TGI (HCT-15 colon) [µM] | GI50 (HS 578T breast) [nM] | TGI (HS 578T breast) [µM] | GI50 (HCT-116 colon) [nM] | TGI (HCT-116 colon) [nM] | GI50 (SF-268 CNS) [µM] | TGI (SF-268 CNS) [µM] | GI50 (NCI-H522 lung) [nM] | TGI (NCI-H522 lung) [µM] | GI50 (SNB-19 CNS) [nM] | TGI (SNB-19 CNS) [µM] | GI50 (SK-OV-3 ovarian) [nM] | TGI (SK-OV-3 ovarian) [µM] | GI50 (COLO 205 colon) [nM] | TGI (COLO 205 colon) [µM] | GI50 (ACHN renal) [nM] | TGI (ACHN renal) [µM]
1 | COc1cc2c(cc1OCCCN1CCN(CCCOc3cc4c(cc3OC)C(=O)N3C[C@H](F)C[C@H]3C=N4)CC1)N=C[C@@H]1C[C@@H](F)CN1C2=O | 273 | 16.3 | 2150 | 12.9 | 84.1 | 2.56 | 34 | 252 | 0.0248 | 5.94 | < 41 | 1.16 | 758 | > 41.6 | 70 | > 100 | 37.3 | 0.193 | 102 | 0.945
2 | O=C(/C=C/c1cccc(Cl)c1)c1ccccc1 | 14800 | 29.3 | 4220 | 22.7 | 2100 | 7.45 | 1440 | 2970 | 11.5 | 26.2 | – | – | 11700 | 25.8 | 16700 | 30.9 | 16800 | 31.7 | 10500 | 23.3
3 | CCc1n(Cc2ccc3ccccc3c2)cc[n+]1Cc1ccc2ccccc2c1 | 766 | 5.55 | 3940 | 15.3 | 1500 | 5.62 | 865 | 2160 | 0.817 | 2.42 | 303 | 1.44 | 492 | 1.82 | 1460 | 5.73 | 376 | 1.73 | 2870 | 10
4 | N#C/C(=C\c1ccccn1)c1nc2ccccc2o1 | 24200 | > 100 | 20700 | 55.8 | 35100 | > 100 | 18900 | 40300 | 31.3 | > 100 | 16600 | 37 | 17000 | 40 | 45900 | > 100 | 44900 | > 100 | 19200 | 46.6
5 | Cc1cc(N)c2cc(NC(=O)/C=C\c3ccccc3Cl)ccc2n1 | 1530 | 3.1 | 1770 | 3.27 | 1820 | 3.88 | 208 | 416 | 1.44 | 2.97 | 1710 | 3.29 | 1560 | 2.95 | 1850 | 3.27 | 266 | 0.597 | 1830 | 3.26
6 | Cc1nc2ccccc2c(/C=C/c2ccc(C(F)(F)F)cc2)c1C(=O)/C=C/c1ccccc1 | 1610 | 2.99 | 1100 | 3.16 | 1920 | 5.75 | 521 | 2030 | – | – | 1330 | 3.07 | 1640 | 3.01 | 1540 | 2.98 | 1550 | 3.82 | 1540 | 2.87
7 | O=[N+]([O-])c1cc2c(ccc3ccccc32)o1 | – | – | 345 | 2.35 | 1400 | 5.28 | 215 | 855 | 0.455 | 9.73 | 563 | 2.18 | 966 | > 35.4 | 571 | 6.25 | 268 | 1.04 | 147 | 0.48
8 | O=C(Nc1cccc2[nH]c(C(F)(F)F)nc12)c1ccc(Br)cc1F | – | – | 3330 | 14.1 | 3540 | 22.8 | 3160 | 11400 | 4.17 | 21.4 | 2550 | 8.26 | 3790 | 14.6 | 2640 | 9.27 | 2630 | 6.33 | 3080 | 11.1
9 | Nc1ccccc1SC(CC(=O)c1ccccc1)c1c(Cl)cccc1Cl (stereo not drawn) | – | – | 2080 | 5.92 | 4480 | 49.5 | 1810 | 4560 | 3.43 | 13.4 | 3860 | 12.6 | 10500 | 22.9 | 12100 | 28.8 | 10900 | 29.9 | 2160 | 5.6
10 | Cc1nc2ccccc2c(/C=C/c2ccc(F)cc2)c1C(=O)/C=C/c1ccccc1 | 4380 | 43.5 | 1920 | 6.2 | 5150 | > 100 | 1250 | 3660 | 3.45 | > 100 | 2000 | 5.79 | 1880 | 4.02 | 4720 | > 100 | – | – | 1980 | 4.65
11 | NC(=O)c1c(NC(=O)c2ccc(C(F)(F)F)cc2Cl)sc2c1CCC(=O)C2 | 1620 | 4.93 | – | – | 368 | 5.94 | 302 | 1420 | 0.456 | 15.7 | 186 | 0.844 | 375 | 3.96 | 2470 | 7.56 | 382 | 1.49 | 322 | 1.04
12 | Cc1ncc2c(n1)CCC1=C2OS(=O)(=O)CC1N(C)C (stereo not drawn) | – | > 100 | – | – | – | > 100 | – | > 100000 | – | > 100 | – | > 100 | – | > 100 | – | > 100 | – | > 100 | – | > 100
13 | COc1cccc(C2=C(c3cn(C)c4c(C)cccc34)C(=O)NC2=O)c1 | – | – | 14200 | > 25 | 5930 | > 25 | > 18000 | > 25000 | > 25 | > 25 | > 18200 | > 25 | > 25000 | > 25 | > 25000 | > 25 | > 25000 | > 25 | 16800 | > 25
